Reference: patent publication US20260248768A1, “MYC PROGRAM AS A MARKER OF RESPONSE TO ENZALUTAMIDE IN PROSTATE CANCER” (Rutgers, The State University of New Jersey, priority 2022, published 2026)

How the values were obtained:
Type in all cases: cell-based
[1] = test system: LNCaP cells; assay: Dose-response cell viability assay in LNCaP cells; conditions: both Enzalutamide-naïve and Enzalutamide-resistant conditions, dose-dependent manner (FIG. 14A)
Experimental: (§1) FIGS. 14A and 14B show MYC inhibition reduces viability and colony formation in Enzalutamide resistant conditions. (FIG. 14A) Drug response curves of Enzalutamide naïve LNCaP or Enzalutamide-resistant LNCaP cells treated with Enzalutamide and/or MYC-i975. (FIG. 14B) Colony formation assay using Enzalutamide-resistant LNCaP cells t (LNCaP-Enza-Res) in intact (treated with DMSO), treated with enzalutamide (10 μM), MYC-i975 (2 μM), or a combination of Enzalutamide+MYC-i975 (10 μM+2 μM). Cells were grown in the presence of respective drugs. Bars represent quantification of Crystal Violet trapped by migrated cells. P-value is estimated utilizing one-tailed Welch t-test. * p<0.05, *** p≤0.001.
(§2) Generation of Enzalutamide-resistant cell lines: LNCaP (clone FDG) and C42B cells were purchased from ATCC and were grown in RPMI1640 media (GIBCO #11875093) supplemented with 10% Fetal Bovine Serum (FBS, Corning Cat #35-011-CV) and maintained at […] in and 5% CO2. Enzalutamide powder was purchased from Sellekchem (cat #S1250) and re-suspended in DMSO. Cells were plated in 6 well plates and treated either with DMSO, or with Enzalutamide (20 μM), refreshed every 4 days for up to 3 months until the resistance emerged. RNA from cells was extracted on indicated days using the methods described below. […]

[2] = test system: LNCaP-EnzaRes cells; assay: Colony formation assay, Enzalutamide-resistant LNCaP cells; conditions: MYCi975 2 μM, Enzalutamide 10 μM, compared to Intact (DMSO)
Experimental: as §1, §2

[3] = test system: C42B cells; assay: Dose-response cell viability assay in C42B cells; conditions: both Enzalutamide-naïve and Enzalutamide-resistant conditions, dose-dependent manner (FIG. 13A)
Experimental: (§3) FIGS. 13A-13F show MYC targeting is beneficial for patients in Enzalutamide-resistant conditions. (FIG. 13A) Drug sensitivity curves of Enzalutamide-naïve, or Enzalutamide-resistant (EnzaRes) C42B cells treated with MYCi975. (FIG. 13B) Colony formation assay using Enzalutamide-resistant (EnzaRes) C42B cells in Intact (treated with DMSO), treated with Enzalutamide (10 μM), MYCi975 (2 μM), or a combination of Enzalutamide+MYCi975 (10 μM+2 μM). Cells were grown in the presence of respective drugs. Representative images are shown. P-value was estimated using a one-tailed Welch t-test. (FIG. 13C) Boyden chamber-based in vitro migration assay using Enzalutamide-resistant (EnzaRes) C42B cells in Intact (treated with DMSO), treated with Enzalutamide (10 μM), MYCi975 (2 μM), or a combination of Enzalutamide+MYCi975 (10 μM+2 μM). Bars represent the quantification of Crystal Violet trapped by migrated cells. P-value was estimated using a one-tailed Welch t-test. (FIG. 13D) Expression of NME2 in Intact and Enzalutamide-resistant (EnzaRes) C42B cells, using the qRT-PCR. P-value was estimated using the one-tailed Welch t-test. […] Bars represent the quantification of Crystal Violet trapped by migrated cells. * p-value <0.05, ** p-value≤0.01, *** p-value≤0.001 […]

[4] = test system: C42B-EnzaRes cells; assay: Colony formation assay, Enzalutamide-resistant C42B cells; conditions: MYCi975 2 μM, Enzalutamide 10 μM, compared to Intact (DMSO)
Experimental: as §3

[5] = test system: C42B-EnzaRes cells; assay: Boyden chamber-based in vitro migration assay; conditions: MYCi975 2 μM, Enzalutamide 10 μM, vs Intact (DMSO)
Experimental: FIGS. 13A-13F show MYC targeting is beneficial for patients in Enzalutamide-resistant conditions. (FIG. 13A) Drug sensitivity curves of Enzalutamide-naïve, or Enzalutamide-resistant (EnzaRes) C42B cells treated with MYCi975. (FIG. 13B) Colony formation assay using Enzalutamide-resistant (EnzaRes) C42B cells in Intact (treated with DMSO), treated with Enzalutamide (10 μM), MYCi975 (2 μM), or a combination of Enzalutamide+MYCi975 (10 μM+2 μM). Cells were grown in the presence of respective drugs. Representative images are shown. P-value was estimated using a one-tailed Welch t-test. (FIG. 13C) Boyden chamber-based in vitro migration assay using Enzalutamide-resistant (EnzaRes) C42B cells in Intact (treated with DMSO), treated with Enzalutamide (10 μM), MYCi975 (2 μM), or a combination of Enzalutamide+MYCi975 (10 μM+2 μM). Bars represent the quantification of Crystal Violet trapped by migrated cells. P-value was estimated using a one-tailed Welch t-test. (FIG. 13D) Expression of NME2 in Intact and Enzalutamide-resistant (EnzaRes) C42B cells, using the qRT-PCR. P-value was estimated using the one-tailed Welch t-test. […] Bars represent the quantification of Crystal Violet trapped by migrated cells. * p-value <0.05, ** p-value≤0.01, *** p-value≤0.001

[6] = test system: MYC; assay: Doxycycline-inducible shRNA knockdown of NME2, MYC expression by Western blot; conditions: C4-2B cells; 0-2000 ng/mL doxycycline for 96 hours; Western blot (FIG. 15)
Experimental: Finally, C4-2B cells expressing doxycycline-inducible shRNA targeting NME2 were generated using the targeting sequence […] (SEQ ID NO: 9). Cells were treated with 0-2000 ng/mL doxycycline for 96 hours and NME2 and MYC expression were evaluated by Western blot.

Molecule | cell viability [1] | colony formation [2] | cell viability [3] | colony formation [4] | cell migration [5] | MYC expression [6]
Cn1nc(C(F)(F)F)cc1-c1ccc(OCc2ccc(Cl)cc2)c(-c2ccc(Cl)c(C(F)(F)F)c2)c1O [MYCi975] | striking reduction of the cell viability | reduced the colony formation | striking reduction of the cell viability | reduced the colony formation | significant reduction in cell migration | 
shRNA targeting NME2: doxycycline-inducible shRNA targeting NME2, targeting sequence GAAATCAGCCTATGGTTTAAG |  |  |  |  |  | suppresses MYC expression
